Results from publication PMC10492782, “Exploiting the aggregation propensity of beta-lactamases to design inhibitors that induce enzyme misfolding” (Nature Communications, 2023).

Experiments:
[1] = Dynamic Light Scattering of peptide (hydrodynamic radius); assay type: physicochemical
Method: Fig. 4 Aggregation kinetics of TEM and SHV proteins and peptides. A Measurements of the hydrodynamic radius by Dynamic Light Scattering of 50 μM TEM3.2 in buffer alone, or in the presence of LPS or polyphosphate (PolyP). […] C Transmission Electron Micrograph of 50 μM TEM 3.2 incubated for 24 h in the same buffer as A with polyP, negatively stained with 2% (w/v) uranyl acetate. A single representative image is shown. […] Three replicates are shown for each condition. E Aggregation kinetics using pFTAA fluorescence emission of recombinantly purified TEM-1, in the presence of vehicle, or TEM 3.2 peptin, as well as peptin-only control. F Similar as in E, but using an off-target Pept-In, based on an APR sequence of beta-galactosidase. G Similar to E, but now using a previously published off-target Pept-In, based on an APR of HcaB. The plots are the results of a single experiment, all replicates are shown. Source data are provided as a Source Data file.
A DynaPro DLS plate reader instrument (Wyatt, Santa Barbara, CA, USA) equipped with an 830 nm laser source was used to determine the hydrodynamic radius (RH) of the peptide particles. […] The autocorrelation of scattered light intensity at a 32° angle was recorded for 5 s and averaged over 20 recordings to obtain a single data point. […]

[2] = tested on: E. coli K12 MG1655 overexpressing GFP; test: Structured illumination microscopy of strains expressing GFP or FP fusions; assay type: cell-based, Escherichia coli; details: strains stably expressing GFP or proteins fused to FPs treated with TEM3.2
Description: (§1) Fig. 5 Induction of aggregation in cells. […] A single representative image is shown. […] A single representative image is shown. C SIM and brightfield images as in A, but for E. coli ATCC strain. […] A single representative image is shown. […] A single representative blot is shown. […] The corrected P-values were 0.6091, 0.0029, 0.0027, <0.0001, and 0.9992, from left to right. […] Statistics exactly as in E, but from 3 independent experiments. The corrected P-values were 0.8753, 0.9796, 0.0001, 0.0003, and 0.0003, from left to right. Source data are provided as a Source Data file.
Bacteria were fixed by adding 2.5% paraformaldehyde and 0.04 % glutaraldehyde (final concentrations) to the culture media, followed by incubation at room temperature for 15 min and 30 min on ice. Bacteria were then washed in PBS and resuspended in GTE buffer (50 mM glucose, 25 mM Tris, and 10 mM EDTA, pH 8.0). Directly preceding microscopic analysis, cells were transferred to a glass slide and covered with a coverslip. Imaging was performed using a Zeiss Elyra S.1 system in the VIB BioImaging Core at KU Leuven.

[3] = tested on: SHV beta-lactamase in E. coli SHV-11; test: Western blot of inclusion body fraction; assay type: cell-based, Escherichia coli; details: 12 μM peptide in PBS, 120 min
Description: as §1
Overnight cultures of bacteria were centrifuged for 30 min at 4000 × g and cells were washed with physiological water (NaCl 0.9%). Bacterial cells were treated by peptide at the appropriate concentration for at least 2 h at 37 C. The bacterial pellets were washed with 10 mL buffer A (50 mM HEPES, pH 7.5, 300 mM NaCl, 5 mM β-mercaptoethanol, 1.0 mM EDTA) and centrifuged at 4 °C for 30 min at 4000 × g. […]

HEK293 = details: 24 h, 400 to 6.25 µg/mL
Method: (§2) The Cell Titer Blue assay was performed to evaluate the cell viability according to the instructions of the manufacturer (Promega, USA). The peptide treatments were done in DMEM medium without serum. Briefly, cells were seeded to approximately 20,000 mammalian cells per well in a 96-well flat-bottom plate (BD Biosciences 353075) and incubated at 37 °C with 5% CO2 and 90% humidity. Peptides were diluted in cell medium, and cells were treated for 24 h. 20 μL of the CellTiter Blue reagent was added to each well and the plate was incubated for 1 h at 37 °C. The fluorescence was measured at 590 nm by exciting at 560 nm with a ClarioStar plate reader (BMG Labtech, Germany).
(§3) Khodaparast et al Supplementary data
(§4) Supplementary Figure 12: Cell viability assays on mammalian cells using the CellTiter Blue assay, plotted as relative values compared to vehicle. The colours of the bars show the concentrations indicated in the legends in µg/mL, ranging from 400 to 6.25 µg/mL. The dots indicate individual measurements on independent wells of cells (4 repeats), the bars

HT-1376 = details: 24 h, 400 to 6.25 µg/mL
Method: as §2, §3, §4

NCI-H441 = details: 24 h, 400 to 12.5 µg/mL
Method: as §2, §3, §4

SH-SY5Y = details: 24 h, 400 to 6.25 µg/mL
Method: as §2, §3, §4

[4] = tested on: primary mouse cortical neurons; details: 24 h, 400 to 6.25 µg/mL
Method: as §2, §3, §4

[5] = Hematologic analysis after repeated dosing; details: daily IV injections, 5 mg/kg

## Ac-RLTAFLHNRRPRLTAFLRQRR-NH2 [TEM3.2]
[1]; 50 μM peptide in buffer alone
  solubility by Dynamic Light Scattering (in words): soluble in vitro
[1]; 50 μM peptide in the presence of LPS or polyphosphate (PolyP)
  aggregation by Dynamic Light Scattering (in words): aggregates readily when triggered by appropriate interactions
[2]
  induced aggregation of unrelated fluorescent proteins (in words): did not observe a similar induced aggregation of the fluorescent proteins
[3]
  SHV enzyme in inclusion body fraction, western blot (in words): accumulates in IBs
HEK293
  cytotoxicity, Cell Titer Blue (in words): not cytotoxic
HT-1376
  cytotoxicity, Cell Titer Blue (in words): not cytotoxic
NCI-H441
  cytotoxicity, Cell Titer Blue (in words): not cytotoxic
SH-SY5Y
  cytotoxicity, Cell Titer Blue (in words): not cytotoxic
[4]
  cytotoxicity, Cell Titer Blue (in words): not cytotoxic
[5]
  hematologic analysis (in words): no major discrepancies to vehicle-treated controls
